Patent US8835134B2, “Cycloastragenol monoglucoside, preparation, pharmaceutical composition and application thereof” (Tianjin Institute of Pharmaceutical Research, priority 2007, dated 2014)

Assay: Oral absorption

## CC(C)(O)[C@@H]1CC[C@](C)([C@H]2[C@@H](O)C[C@@]3(C)C4C[C@H](OC5OC(CO)C(O)C(O)C5O)C5C(C)(C)[C@@H](O)CC[C@@]56C[C@@]46CC[C@]23C)O1 (stereo partly drawn) [CMG, Cycloastragenol-6-O-β-D-glucoside]
  oral absorption: good oral absorption properties
